# Columns and labels:
# S. aureus (+) [1] = experiment: porfimer sodium aPDT, planktonic culture; format: cell-based, Staphylococcus aureus; conditions: 630 nm, 200 J/cm2, porfimer sodium 125 μg/mL
# Protocol: (§1) Bacteria were routinely cultured using tryptic soy broth or agar at 37° C. in a 5% CO2 incubator. Bacteria were isolated and suspended with 0.9% NaCl to an Optical Density (OD) of 0.1 taken at 630 nm, to generate the inoculum used for either planktonic or biofilm assays.
# (§2) Experiments using planktonic cultures were carried out using M. catarrhalis, as a standard for further comparisons and to determine the effective drug concentration, porfimer sodium incubation time and light dose parameters which would provide an effective cell kill at the level of 5-7 logs. Once determined the experiments were repeated for all other bacterial strains examined.
# (§3) The colony forming units (CFU) per mL of the starting inoculum for every experiment was determined by dilution plating. […]
# (§4) Bacteria were exposed to 630 nm laser light via a fiber optic with a lens affixed to the distal end to provide a uniform diverging light field. […] Power output of the laser was measured using a UDT/Gamma Scientific 371 optical power meter and an integrating sphere. […]
# (§5) Biofilms were formed on glass coupons in culture dishes containing a bacterial inoculum for 48 hours under conditions specific to the strain. […] Power output of the laser was measured using a UDT/Gamma Scientific 371 optical power meter and an integrating sphere. […]
# B. thurigiensis (+) = experiment: porfimer sodium aPDT, planktonic culture; format: cell-based, Bacillus thuringiensis; conditions: 630 nm, 200 J/cm2, porfimer sodium 125 μg/mL
# Protocol: as §1, §2, §3, §4, §5
# M. catarrhalis (−) = experiment: porfimer sodium aPDT, planktonic culture; format: cell-based, Moraxella catarrhalis
# Protocol: as §1, §2, §3, §4, §5
# S. aureus (+) [2] = experiment: porfimer sodium aPDT, 48 hour biofilm culture; format: cell-based, Staphylococcus aureus; conditions: 630 nm, kill at 75 J/cm2 (light dose 75-100 J/cm2), porfimer sodium 250 μg/mL
# Protocol: as §1
# The colony forming units (CFU) per mL of the starting inoculum for every experiment was determined by dilution plating. Control samples were exposed to laser at 630 nm in the absence of porfimer sodium, porfimer sodium in the absence of laser exposure, or in saline alone in the absence of porfimer sodium and 630 nm laser light. All experimental samples were dilution plated to enumerate viable CFU's. Three independent replicates were performed for each reaction condition per strain per assay. […]
# as §4, §5
# [3] = system: planktonic and biofilm bacterial populations; experiment: porfimer sodium photodynamic therapy in vitro, overall summary; format: cell-based
# Protocol: This study evaluated the bactericidal efficacy of porfimer sodium based photodynamic therapy against standard and antibiotic resistant bacterial strains in planktonic and biofilm cultures. The primary efficacy endpoint was the overall cell kill analysis as determined by the enumeration of viable colony forming assays post PDT treatments as analyzed using the unpaired students two-tailed t test on log transformed data.
# Planktonic cultures were prepared by adding bacteria to glass vials with saline and porfimer sodium to a final concentration ranging from 125 μg/ml to 150 μg/ml.
# Biofilms were formed on glass coupons in culture dishes containing a bacterial inoculum for 48 hours under conditions specific to the strain. The glass coupon attached biofilms were then rinsed with saline, by dipping method, prior to the administration of the porfimer sodium. The biofilms were incubated in the dark for 15-30 minutes with a reconstituted saline solution of porfimer sodium at final concentrations ranging from 75 μg/ml-250 μg/ml. The porfimer sodium treated biofilms were then exposed to light doses at 630 nm light of 50-200 J/cm^2 at a power density of 150 milliwatts per cm^2. […] Power output of the laser was measured using a UDT/Gamma Scientific 371 optical power meter and an integrating sphere. […]
substance,measurement,setting,value
porfimer sodium,Rate of kill,S. aureus (+) [1],>7Log
same,Rate of kill,B. thurigiensis (+),>6Log
same,bacterial cell kill,"M. catarrhalis (−); 125 μg/ml, incubated 10 minutes, light doses 50-100 J/cm^2",6-7 logs
same,Rate of kill,"M. catarrhalis (−); 630 nm, 200 J/cm2, porfimer sodium 125 μg/mL",7Log
same,Rate of kill,S. aureus (+) [2],>6Log
same,log reductions in bacterial loads,[3],5-6 log
same,reduction in bacterial loads,[3],> 99%

# From US12090204B2, “Photodynamic therapy compositions and methods of use thereof” (Pinnacle Biologics, Inc., priority 2020, dated 2024)
